How the values were obtained:
[1] = tested on: rat duodenum; experiment: SPIP of MDQ-TS with or without verapamil (P-gp inhibitor); format: in vivo; details: MDQ-TS 2.5 mg/mL; for Ka increase in comparison with non-Verapamil added group / Papp increase in comparison with non-Verapamil added group: verapamil 200 μmol·L^−1
Description: (§1) MDQ-TS perfusion samples at low, middle, and high concentration levels of 1.25, 2.5, and 5.0 mg·mL^−1 were prepared by separately dissolving MDQ-TS in the minimum amount of DMSO and diluted with K-R buffer solution. The amount of DMSO was 0.5% in the final perfusion solutions. C1, C2, C3, C4, DC1, and DC2 perfusion samples with the concentration equivalent to the amount contained in 2.5 mg·mL^−1 of MDQ-TS were individually prepared in the same way. Verapamil, amantadine and EDTA were directly dissolved in the MDQ-TS perfusate with terminal concentrations of 200 μmol·L^−1, 2.5 mmol·L^−1, and 2.5 mmol·L^−1, accordingly, and used for investigating the mechanisms involved for absorption.
(§2) In situ single-pass intestinal perfusion (SPIP) studies were performed using an experimental design adapted from the literature with some modifications. Briefly, male Sprague-Dawley rats weighing 180–220 g were acclimatized for at least one week before the experiment, and fasted for 18 h with free access to water before the perfusion experiment. Rats were anesthetized with an intraperitoneal injection of urethane (30 mg·kg^−1 body weight), and kept on a homeothermic blanket to maintain normal body temperature. The abdomen was opened with a midline longitudinal incision, and three segments of rat intestine (duodenum, jejunum, and ileum) of approximately 10 cm each were carefully cannulated on two ends with plastic tubing. Initially, the perfusion solution free of drug (37 °C) was pumped by peristaltic pump (BT100-1F, Longer Pump Co., Baoding, China) through the cannulated segments at a flow rate of 1 mL/min for approximately 30 min in order to clean out any residual debris. Secondly, the perfusion solution containing a known concentration of substance (C1, C2, C3, C4, DC1, DC2, and MDQ-TS) was perfused at 37 °C through the intestinal lumen at a constant flow rate of 0.2 mL/min. The first 20 min of period corresponds to steady state, i.e., when the substance is in equilibrium with the intestinal membrane. After steady state, samples were collected from distal portion of duodenum, jejunum and ileum at 10 min intervals (0–10, 10–20, 20–30, 30–40, 40–50, 50–60 min) in pre-weighted vials. Samples were immediately frozen at −20 °C until analysis by validated UPLC. During the experiment, care was taken to avoid disturbance of the circulatory system and the exposed segment was covered with a piece of sterilized gauze to keep it warm and moist by frequent application of warm (37 °C) saline. The intestinum tenue maintained its viability and intact state without disrupting the blood supply throughout the experimental period. Finally, animals were sacrificed after depth anesthesia by intraperitoneal injection of urethane, according to protocols for euthanasia in experimental animals. After death, the intestinal segment was removed for measurements of length and inside diameter.
(§3) The net water flux in the in situ perfusion studies (water absorption and efflux in the intestinal segment) was determined by gravimetric method. The effective absorption rate constant (Ka) and effective apparent permeability (Papp) of compounds in the intestinal segments were calculated according to the following mathematical expression:(1) Ka=(1−CoutQout/CinQin)Q/V (2) Papp=−Qln(CoutQout/CinQin)/2πrl where Cin and Cout are the concentration of test drug in the effluent perfusate through the inlet and outlet tube (μg·mL^−1), respectively. Qin and Qout represent the inlet and outlet volume of effluent perfusate (mL), respectively. Q is the volume flow rate of perfusion (mL·h^−1). V is the volume of the intestinal segment concerned (mL). 2πrl is the area of the mass transfer surface of intestinal segment concerned (cm^2). […]

[2] = Apparent oil-water partition coefficient, shake-flask method; format: physicochemical; details: n-octanol / phosphate buffer pH 1.2-9.0, 37 °C; Kow = log Co/(Ct−Co)
Description: The equilibrium partitioning of C1, C2, C3, C4, DC1, and DC2 between organic lipid and water (Kow) was determined in our study by the traditional shake-flask method (SFM). Briefly, 0.5 mL of each saponin standard working solution (100 µg·mL^−1 in water-saturated n-octanol) was accurately measured into 5 mL centrifuge tubes, and spiked with 0.5 mL of different phosphate buffer solutions (pH: 1.2, 2.0, 3.6, 5.8, 6.8, 7.4, 7.8, and 9.0), respectively. After vortex-mixing for 45 min, the tubes were kept in a temperature-stable horizontal shaking bath (37 °C) for 24 h, and then centrifuged at 13,000 rpm for 10 min. Two hundred microliters of organic supernatant solution was measured, diluted with 800 µL of methanol, and mixed well. Ten microliters of the final solution was injected into the HPLC system (detailed experimental conditions and method validation results were not shown) for determination of the drug concentration in the n-octanol phase. The Kow values of the six saponins were calculated according to the following mathematical expression:(3) Kow=logCo/Ct−Co where Ct is the total concentration of the drug, and Co is the concentration of the drug in n-octanol phase.

[3] = tested on: rat duodenum; experiment: SPIP of MDQ-TS with or without EDTA (tight junction modulator); format: in vivo; details: MDQ-TS 2.5 mg/mL, EDTA 2.5 mmol·L^−1
Description: as §1, §2, §3

[4] = Stability in outflow perfusate matrix; format: physicochemical; details: 37 °C
Description: The chromatographic method was validated for specificity, linearity and LOQ, accuracy and precision, extraction recovery, matrix, and stability. The validation parameters were studied using drug-free (blank) intestinal perfusate mixture that had passed through intestinal segments, and had been collected from five different rats. Specificity was evaluated by analyzing the intestinal perfusion blank and perfusion blank spiked with analytes to investigate the potential interferences of intestinal perfusate endogenous with the analytes; calibration and quality control (QC) samples were obtained by spiking mixed working standard solution in blank intestinal perfusion buffer. Calibration curves were constructed in the range of 20–1000 μg·mL^−1 for C1 (20, 40, 100, 200, 400, and 1000 μg·mL^−1), and 8.0–400.0 μg·mL^−1 for C2, C3, C4, DC1 and DC2 (8.0, 16.0, 40.0, 80.0, 160.0, and 400.0 μg·mL^−1). A weighted (1/x^2) linear least-squares linear regression method was used to determine the slope, intercept, and correlation coefficient; LOQ was determined by injection a series of standard solutions until the signal-to-noise (S/N) ratio was 10; Precision and accuracy were assessed at low, medium, and high concentration levels (40, 200, and 800 μg·mL^−1 for C1; 16, 80, and 320 μg·mL^−1 for C2, C3, C4, DC1, and DC2). Intra-day data was obtained by assaying six replicates at each concentration level in a day, and inter-day data was determined by analyzing QC samples in duplicates during three separate and successive days; The extraction recovery of the six analytes and IS from the outflow perfusate matrix was determined by comparing the mean peak areas of six replicates processed QC samples at each concentration level spiked before extraciton with those from outflow perfusate spiked after extraction; Matrix effect was assessed by comparing the mean peak areas of six replicates at each concentration level dissolved in the post-extracted intestinal perfusate matrix with those of neat standards (C1, C2, C3, C4, DC1, DC2, and IS) spiked in methanol at corresponding concentration levels; Stabilities of C1, C2, C3, C4, DC1, and DC2 in outflow perfusate matrix (12 h, 37 °C), processed samples (auto-sampler condition for 24 h), after freeze-thaw cycle and long-term cold storage (−20 °C, 14 days) were assayed by QC samples in six replicates at three concentration level.

With C[C@@H]1CC[C@]2(C(=O)O)CC[C@]3(C)C(=CC[C@@H]4[C@@]5(C)CC[C@H](O)[C@@](C)(C(=O)O)[C@@H]5CC[C@]43C)[C@@H]2[C@]1(C)O [C1, ilexgenin A] the “Ka increase in comparison with non-Verapamil added group” value [1] was “about 1.5 fold”, the “apparent oil-water partition coefficient (Kow)” value [2] was −1 to 2 and the “Ka increase in comparison with non-EDTA added group” value [3] was ~1.6 fold. The “Papp increase in comparison with non-EDTA added group” value [3] was “about 1.7 fold” and the “stability in outflow perfusate matrix” value [4] was “at least 12 h”.
For CC1CCC2(C(=O)OC3OC(CO)C(O)C(O)C3O)CCC3(C)C(=CCC4C5(C)CCC(O)C(C)(C(=O)O)C5CCC43C)C2C1(C)O (stereo not drawn) [C2, ilexsaponin A1], the “Ka increase in comparison with non-Verapamil added group” value [1] was ~4.2 fold, the “Papp increase in comparison with non-Verapamil added group” value [1] was “about 2.3 fold” and the “apparent oil-water partition coefficient (Kow)” value [2] was −1 to 2. The “Ka increase in comparison with non-EDTA added group” value [3] was ~1.6 fold, the “Papp increase in comparison with non-EDTA added group” value [3] was ~1.2 fold and the “stability in outflow perfusate matrix” value [4] was “at least 12 h”.
With C[C@H]1CC[C@]2(C(=O)O)CC[C@]3(C)C(=CC[C@@H]4[C@@]5(C)CC[C@H](O[C@@H]6OC[C@@H](O)[C@H](O)[C@H]6O[C@@H]6O[C@H](CO)[C@@H](O)[C@H](O)[C@H]6O)C(C)(C)[C@@H]5CC[C@]43C)[C@@H]2[C@]1(C)O [C3, ilexsaponin B1] the “Ka increase in comparison with non-Verapamil added group” value [1] was ~1.2 fold, the “Papp increase in comparison with non-Verapamil added group” value [1] was ~1.4 fold and the “apparent oil-water partition coefficient (Kow)” value [2] was −1 to 2. The “Ka increase in comparison with non-EDTA added group” value [3] was ~1.5 fold, the “Papp increase in comparison with non-EDTA added group” value [3] was ~1.9 fold and the “stability in outflow perfusate matrix” value [4] was “at least 12 h”.
In the case of C[C@@H]1O[C@@H](O[C@H]2[C@H](O[C@H]3[C@H](O[C@H]4CC[C@]5(C)[C@H]6CC=C7[C@H]8[C@](C(=O)O)(CC[C@H](C)[C@@]8(C)O)CC[C@@]7(C)[C@]6(C)CC[C@H]5C4(C)C)OC[C@@H](O)[C@@H]3O)O[C@H](CO)[C@@H](O)[C@@H]2O)[C@H](O)[C@H](O)[C@H]1O [C4, ilexsaponin B2], the “Ka increase in comparison with non-Verapamil added group” value [1] was “about 1.5 fold”, the “apparent oil-water partition coefficient (Kow)” value [2] was −1 to 2 and the “Ka increase in comparison with non-EDTA added group” value [3] was ~1.5 fold. For the same compound, the “Papp increase in comparison with non-EDTA added group” value [3] was ~1.5 fold and the “stability in outflow perfusate matrix” value [4] was “at least 12 h”.
In the case of C[C@@H]1O[C@@H](O[C@H]2[C@H](O[C@H]3[C@H](O[C@H]4CC[C@]5(C)[C@H]6CC=C7[C@H]8[C@](C(=O)O[C@@H]9O[C@H](CO)[C@@H](O)[C@H](O)[C@H]9O)(CC[C@H](C)[C@@]8(C)O)CC[C@@]7(C)[C@]6(C)CC[C@H]5C4(C)C)OC[C@@H](O)[C@@H]3O)O[C@H](CO)[C@@H](O)[C@@H]2O)[C@H](O)[C@H](O)[C@H]1O [DC2, ilexoside O], the “intestinal absorption in Verapamil added group” value ([1]; verapamil 200 μmol·L^−1, result in words) was “could not be absorbed by the small intestine at all”, the “apparent oil-water partition coefficient (Kow)” value [2] was −1 to 2 and the “Ka increase in comparison with non-EDTA added group” value [3] was ~3.0 fold. The “Papp increase in comparison with non-EDTA added group” value [3] was ~2.1 fold and the “stability in outflow perfusate matrix” value [4] was “at least 12 h”.
For ilexsaponin B3 [DC1], the “Ka increase in comparison with non-Verapamil added group” value [1] was ~2.9 fold, the “Papp increase in comparison with non-Verapamil added group” value [1] was ~3.4 fold and the “apparent oil-water partition coefficient (Kow)” value [2] was −1 to 2. The “Ka increase in comparison with non-EDTA added group” value [3] was ~1.4 fold, the “Papp increase in comparison with non-EDTA added group” value [3] was ~1.4 fold and the “stability in outflow perfusate matrix” value [4] was “at least 12 h”.
